Source: ChEMBL document CHEMBL5649166, “RIP3 induces apoptosis independent of pronecrotic kinase activity” (Mol Cell, 2014)
Activity calls are given as the source filed them. No cut-off for these calls is given here.

Key:
[1] = system: Neutrophil; experiment: Inhibition of TNF-alpha induced necroptosis in human neutrophil cells assessed as increase in cell viability incubated for 18 hrs in presence of zVAD and SMAC007 by Cell Titer-Glo luminescent cell viability assay; assay type: functional, cell-based
[2] = target: Serine/threonine-protein kinase PLK3 (Homo sapiens) (UniProt Q9H4B4); experiment: Residual activity of human PLK3 using casein as substrate at 1 uM in presence of 32P-ATP by Hotspot assay relative to control
Serine/threonine-protein kinase PLK3 (Homo sapiens), sequence (Q9H4B4 whole entry, looked up): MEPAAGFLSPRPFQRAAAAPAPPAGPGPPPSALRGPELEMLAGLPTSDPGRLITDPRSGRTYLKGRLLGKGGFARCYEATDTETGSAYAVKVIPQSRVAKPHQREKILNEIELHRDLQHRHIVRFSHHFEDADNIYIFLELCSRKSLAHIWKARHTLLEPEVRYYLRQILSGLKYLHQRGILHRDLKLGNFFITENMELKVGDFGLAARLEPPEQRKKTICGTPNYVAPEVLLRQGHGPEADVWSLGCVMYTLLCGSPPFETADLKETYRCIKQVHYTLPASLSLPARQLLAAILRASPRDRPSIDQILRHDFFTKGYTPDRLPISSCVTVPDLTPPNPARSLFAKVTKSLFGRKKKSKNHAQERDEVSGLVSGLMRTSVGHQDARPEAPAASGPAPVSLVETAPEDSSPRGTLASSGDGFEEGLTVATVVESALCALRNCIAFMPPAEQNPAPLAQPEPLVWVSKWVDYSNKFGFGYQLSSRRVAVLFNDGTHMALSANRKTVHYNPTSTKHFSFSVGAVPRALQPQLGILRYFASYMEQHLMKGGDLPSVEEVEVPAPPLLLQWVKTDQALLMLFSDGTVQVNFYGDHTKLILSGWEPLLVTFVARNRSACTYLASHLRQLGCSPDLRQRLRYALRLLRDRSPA

[3] = target: T1, TGF-beta receptor type-1 (Homo sapiens) (UniProt P36897); experiment: Inhibition of human ALK5/TGFBR1 using casein as substrate at 1 uM in presence of 32P-ATP by Hotspot assay relative to control; values are per cent of control
T1 sequence (whole entry): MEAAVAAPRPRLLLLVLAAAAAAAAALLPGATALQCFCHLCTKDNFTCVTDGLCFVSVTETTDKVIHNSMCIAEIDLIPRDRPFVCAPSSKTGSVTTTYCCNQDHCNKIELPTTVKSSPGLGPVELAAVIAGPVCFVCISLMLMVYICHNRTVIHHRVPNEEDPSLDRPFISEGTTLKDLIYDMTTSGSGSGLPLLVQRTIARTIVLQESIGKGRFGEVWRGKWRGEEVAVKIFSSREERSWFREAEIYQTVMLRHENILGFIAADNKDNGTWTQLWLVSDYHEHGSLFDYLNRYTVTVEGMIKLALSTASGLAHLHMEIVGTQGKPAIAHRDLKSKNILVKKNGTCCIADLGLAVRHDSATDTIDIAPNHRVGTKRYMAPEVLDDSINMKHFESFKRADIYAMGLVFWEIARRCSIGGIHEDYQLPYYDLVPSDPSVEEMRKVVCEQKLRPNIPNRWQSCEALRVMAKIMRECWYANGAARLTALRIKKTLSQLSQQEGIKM

[4] = target: T2, Cyclin-dependent kinase 5/CDK5 activator 1 (Homo sapiens) (UniProt Q00535+Q15078); experiment: Inhibition of human CDK5/p25 using RB Protein as substrate at 1 uM in presence of 32P-ATP by Hotspot assay relative to control; values are per cent of control
T2 sequence (Q00535 whole entry): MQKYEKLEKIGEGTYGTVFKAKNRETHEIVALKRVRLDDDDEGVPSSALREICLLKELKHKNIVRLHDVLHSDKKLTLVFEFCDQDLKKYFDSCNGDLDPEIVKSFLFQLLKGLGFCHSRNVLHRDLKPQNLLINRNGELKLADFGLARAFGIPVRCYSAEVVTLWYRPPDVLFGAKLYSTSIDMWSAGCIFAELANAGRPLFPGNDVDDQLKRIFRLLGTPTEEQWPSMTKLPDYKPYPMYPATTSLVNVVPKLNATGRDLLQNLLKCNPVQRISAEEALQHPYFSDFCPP
T2 sequence (Q15078 99-307 partner limits assumed): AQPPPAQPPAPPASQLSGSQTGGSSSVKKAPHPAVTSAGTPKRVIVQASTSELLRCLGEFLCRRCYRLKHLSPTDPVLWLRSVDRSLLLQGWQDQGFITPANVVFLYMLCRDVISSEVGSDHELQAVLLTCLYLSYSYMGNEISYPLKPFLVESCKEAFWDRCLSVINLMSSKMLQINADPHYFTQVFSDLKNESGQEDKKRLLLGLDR

[5] = target: T2, Cyclin-dependent kinase 5/CDK5 activator 1 (Homo sapiens); experiment: Inhibition of human CDK5/p35 using RB Protein as substrate at 1 uM in presence of 32P-ATP by Hotspot assay relative to control; values are per cent of control
[6] = target: MAP kinase-activated protein kinase 2 (Homo sapiens) (UniProt P49137); experiment: Inhibition of human MAPKAPK2 using KKLNRTLSVA as substrate at 1 uM in presence of 32P-ATP by Hotspot assay relative to control; values are per cent of control
MAP kinase-activated protein kinase 2 (Homo sapiens), sequence (P49137 whole entry, looked up): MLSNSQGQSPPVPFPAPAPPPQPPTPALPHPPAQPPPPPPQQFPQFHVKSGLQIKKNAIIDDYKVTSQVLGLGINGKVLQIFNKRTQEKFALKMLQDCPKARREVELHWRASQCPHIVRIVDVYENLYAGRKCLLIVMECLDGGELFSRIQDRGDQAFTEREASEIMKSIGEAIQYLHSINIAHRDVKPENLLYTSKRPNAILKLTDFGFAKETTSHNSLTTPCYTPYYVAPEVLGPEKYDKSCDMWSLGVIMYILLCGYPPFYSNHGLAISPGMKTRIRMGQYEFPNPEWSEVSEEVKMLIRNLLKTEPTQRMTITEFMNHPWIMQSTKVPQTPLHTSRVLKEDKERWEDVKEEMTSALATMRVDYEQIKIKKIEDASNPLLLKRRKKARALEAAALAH

[7] = target: RAC-alpha serine/threonine-protein kinase (Homo sapiens) (UniProt P31749); experiment: Inhibition of human AKT1 using KGSGSGRPRTSSFAEG as substrate at 1 uM in presence of 32P-ATP by Hotspot assay relative to control; values are per cent of control
RAC-alpha serine/threonine-protein kinase (Homo sapiens), sequence (P31749 whole entry): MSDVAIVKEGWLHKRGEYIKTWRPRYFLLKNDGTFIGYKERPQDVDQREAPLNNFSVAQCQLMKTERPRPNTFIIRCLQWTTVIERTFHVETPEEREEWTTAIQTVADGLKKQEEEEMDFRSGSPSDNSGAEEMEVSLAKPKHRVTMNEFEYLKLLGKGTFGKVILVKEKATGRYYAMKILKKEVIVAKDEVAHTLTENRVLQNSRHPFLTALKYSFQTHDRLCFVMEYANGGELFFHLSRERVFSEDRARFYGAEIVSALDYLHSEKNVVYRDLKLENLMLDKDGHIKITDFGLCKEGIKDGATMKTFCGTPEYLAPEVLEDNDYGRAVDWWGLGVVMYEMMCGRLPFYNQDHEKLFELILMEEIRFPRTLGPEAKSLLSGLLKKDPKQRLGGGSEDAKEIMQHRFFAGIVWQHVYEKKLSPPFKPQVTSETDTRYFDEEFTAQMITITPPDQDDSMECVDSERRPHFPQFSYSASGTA

[8] = target: T3, Serine/threonine-protein kinase D3 (Homo sapiens) (UniProt O94806); experiment: Inhibition of human PKCnu/PRKD3 using KKLNRTLSVA as substrate at 1 uM in presence of 32P-ATP by Hotspot assay relative to control; values are per cent of control
T3 sequence (whole entry): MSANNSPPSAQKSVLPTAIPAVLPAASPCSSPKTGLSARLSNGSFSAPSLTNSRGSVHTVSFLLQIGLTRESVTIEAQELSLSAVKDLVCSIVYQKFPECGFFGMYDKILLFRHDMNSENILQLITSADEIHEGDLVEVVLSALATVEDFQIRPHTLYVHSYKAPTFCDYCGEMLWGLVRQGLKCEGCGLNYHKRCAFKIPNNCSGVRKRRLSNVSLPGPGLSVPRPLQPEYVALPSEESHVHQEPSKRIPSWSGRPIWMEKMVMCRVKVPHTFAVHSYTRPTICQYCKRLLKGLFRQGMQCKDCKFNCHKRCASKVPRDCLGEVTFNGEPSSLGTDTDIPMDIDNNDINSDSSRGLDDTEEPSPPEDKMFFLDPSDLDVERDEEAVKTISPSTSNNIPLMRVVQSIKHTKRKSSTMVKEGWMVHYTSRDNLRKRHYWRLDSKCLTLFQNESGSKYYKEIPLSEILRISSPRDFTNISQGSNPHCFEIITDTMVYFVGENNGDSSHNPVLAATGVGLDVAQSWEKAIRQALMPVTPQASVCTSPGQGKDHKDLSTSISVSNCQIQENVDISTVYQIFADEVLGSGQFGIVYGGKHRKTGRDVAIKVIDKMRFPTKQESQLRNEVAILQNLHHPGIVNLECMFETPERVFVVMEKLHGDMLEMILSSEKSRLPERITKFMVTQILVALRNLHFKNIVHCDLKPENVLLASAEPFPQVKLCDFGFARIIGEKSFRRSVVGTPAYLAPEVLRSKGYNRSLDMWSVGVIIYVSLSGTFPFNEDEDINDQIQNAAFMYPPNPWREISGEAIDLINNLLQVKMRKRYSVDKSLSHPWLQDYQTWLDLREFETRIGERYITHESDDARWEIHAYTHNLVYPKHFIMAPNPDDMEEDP

[9] = target: Casein kinase I isoform gamma-1 (Homo sapiens) (UniProt Q9HCP0); experiment: Inhibition of human CK1g1 using KRRRAL[pS]VASLPGL as substrate at 1 uM in presence of 32P-ATP by Hotspot assay relative to control; values are per cent of control
Casein kinase I isoform gamma-1 (Homo sapiens), sequence (Q9HCP0 whole entry, looked up, canonical isoform): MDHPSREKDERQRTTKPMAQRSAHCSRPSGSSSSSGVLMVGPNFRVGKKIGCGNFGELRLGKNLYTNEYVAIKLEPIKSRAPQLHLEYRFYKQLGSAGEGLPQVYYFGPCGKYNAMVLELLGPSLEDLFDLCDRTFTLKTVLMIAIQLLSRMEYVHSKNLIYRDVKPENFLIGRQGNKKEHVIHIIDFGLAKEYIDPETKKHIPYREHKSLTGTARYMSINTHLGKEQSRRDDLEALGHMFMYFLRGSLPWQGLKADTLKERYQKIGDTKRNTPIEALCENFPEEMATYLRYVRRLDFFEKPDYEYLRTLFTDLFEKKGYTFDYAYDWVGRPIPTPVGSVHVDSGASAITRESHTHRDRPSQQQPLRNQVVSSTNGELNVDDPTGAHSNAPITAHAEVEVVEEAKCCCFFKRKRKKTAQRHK

[10] = target: Ephrin type-A receptor 2 (Homo sapiens) (UniProt P29317); experiment: Inhibition of human EPHA2 using poly[Glu:Tyr] (4:1) as substrate at 1 uM in presence of 32P-ATP by Hotspot assay relative to control; values are per cent of control
Ephrin type-A receptor 2 (Homo sapiens), sequence (P29317 whole entry): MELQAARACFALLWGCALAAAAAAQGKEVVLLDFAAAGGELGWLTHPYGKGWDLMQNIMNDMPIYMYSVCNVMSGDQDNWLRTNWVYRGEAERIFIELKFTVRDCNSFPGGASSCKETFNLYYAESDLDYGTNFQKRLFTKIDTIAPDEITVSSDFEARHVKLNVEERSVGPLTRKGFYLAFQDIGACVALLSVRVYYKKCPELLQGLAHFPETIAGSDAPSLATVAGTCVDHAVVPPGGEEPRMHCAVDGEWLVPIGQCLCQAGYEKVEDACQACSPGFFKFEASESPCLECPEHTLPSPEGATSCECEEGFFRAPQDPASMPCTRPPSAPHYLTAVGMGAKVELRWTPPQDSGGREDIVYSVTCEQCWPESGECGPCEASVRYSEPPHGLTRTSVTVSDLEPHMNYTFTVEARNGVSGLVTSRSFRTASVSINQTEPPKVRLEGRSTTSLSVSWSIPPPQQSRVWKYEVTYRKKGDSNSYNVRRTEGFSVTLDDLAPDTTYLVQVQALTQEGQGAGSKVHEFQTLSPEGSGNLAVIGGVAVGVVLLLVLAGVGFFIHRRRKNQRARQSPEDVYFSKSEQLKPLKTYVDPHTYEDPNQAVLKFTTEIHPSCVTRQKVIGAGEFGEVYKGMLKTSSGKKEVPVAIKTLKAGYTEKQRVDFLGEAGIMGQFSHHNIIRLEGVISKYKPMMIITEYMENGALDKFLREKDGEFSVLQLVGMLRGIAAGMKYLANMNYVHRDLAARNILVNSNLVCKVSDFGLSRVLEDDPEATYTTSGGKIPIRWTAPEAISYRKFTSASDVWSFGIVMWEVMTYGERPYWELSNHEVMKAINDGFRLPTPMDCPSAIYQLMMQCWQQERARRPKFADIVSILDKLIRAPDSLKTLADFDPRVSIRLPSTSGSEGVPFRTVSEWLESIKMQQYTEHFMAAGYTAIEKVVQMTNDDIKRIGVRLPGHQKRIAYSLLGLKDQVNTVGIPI

[11] = target: Ribosomal protein S6 kinase beta-2 (Homo sapiens) (UniProt Q9UBS0); experiment: Inhibition of human p70S6Kb/RPS6KB2 using KKRNRTLTK as substrate at 1 uM in presence of 32P-ATP by Hotspot assay relative to control; values are per cent of control
Ribosomal protein S6 kinase beta-2 (Homo sapiens), sequence (Q9UBS0 whole entry): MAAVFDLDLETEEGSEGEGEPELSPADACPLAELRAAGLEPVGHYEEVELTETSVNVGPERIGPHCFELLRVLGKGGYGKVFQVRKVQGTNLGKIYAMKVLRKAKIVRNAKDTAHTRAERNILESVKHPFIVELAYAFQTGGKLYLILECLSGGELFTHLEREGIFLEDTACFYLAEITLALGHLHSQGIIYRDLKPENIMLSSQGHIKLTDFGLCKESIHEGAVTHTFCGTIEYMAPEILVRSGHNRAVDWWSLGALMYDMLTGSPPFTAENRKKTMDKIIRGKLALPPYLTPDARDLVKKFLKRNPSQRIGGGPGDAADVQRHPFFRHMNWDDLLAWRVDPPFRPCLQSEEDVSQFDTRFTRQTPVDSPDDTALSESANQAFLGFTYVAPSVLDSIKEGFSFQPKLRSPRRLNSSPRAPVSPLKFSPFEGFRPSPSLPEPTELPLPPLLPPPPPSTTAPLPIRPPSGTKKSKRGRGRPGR

[12] = target: Serine/threonine-protein kinase 16 (Homo sapiens) (UniProt O75716); experiment: Inhibition of human STK16 using myelin basic protein as substrate at 1 uM in presence of 32P-ATP by Hotspot assay relative to control; values are per cent of control
Serine/threonine-protein kinase 16 (Homo sapiens), sequence (O75716 whole entry, canonical isoform): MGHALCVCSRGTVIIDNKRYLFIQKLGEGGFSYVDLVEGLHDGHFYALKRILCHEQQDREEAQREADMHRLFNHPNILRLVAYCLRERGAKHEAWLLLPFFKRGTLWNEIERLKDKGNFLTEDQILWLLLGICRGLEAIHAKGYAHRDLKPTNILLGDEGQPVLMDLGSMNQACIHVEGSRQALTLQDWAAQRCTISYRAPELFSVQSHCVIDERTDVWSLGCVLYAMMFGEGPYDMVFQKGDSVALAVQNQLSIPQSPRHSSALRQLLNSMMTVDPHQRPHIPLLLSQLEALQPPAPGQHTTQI

[13] = target: Casein kinase I isoform epsilon (Homo sapiens) (UniProt P49674); experiment: Inhibition of human CK1epsilon using KRRRAL[pS]VASLPGL as substrate at 1 uM in presence of 32P-ATP by Hotspot assay relative to control; values are per cent of control
Casein kinase I isoform epsilon (Homo sapiens), sequence (P49674 whole entry, looked up, canonical isoform): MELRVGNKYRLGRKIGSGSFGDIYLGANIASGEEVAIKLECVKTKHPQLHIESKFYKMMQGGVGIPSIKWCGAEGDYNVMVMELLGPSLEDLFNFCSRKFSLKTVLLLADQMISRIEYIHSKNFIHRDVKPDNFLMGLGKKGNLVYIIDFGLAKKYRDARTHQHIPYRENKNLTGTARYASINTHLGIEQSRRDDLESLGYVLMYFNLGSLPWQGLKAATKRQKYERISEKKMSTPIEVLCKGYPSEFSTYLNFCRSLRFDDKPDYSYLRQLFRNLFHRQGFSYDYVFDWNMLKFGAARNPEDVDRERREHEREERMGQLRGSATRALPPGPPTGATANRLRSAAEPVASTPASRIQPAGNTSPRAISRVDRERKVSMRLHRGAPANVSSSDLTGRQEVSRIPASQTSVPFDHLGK

Row | Compound | inhibition [1] | residual activity [2] | residual activity [3] | residual activity [4] | residual activity [5] | residual activity [6] | residual activity [7] | residual activity [8] | residual activity [9] | residual activity [10] | residual activity [11] | residual activity [12] | residual activity [13]
1 | Cc1cc(-c2cnc(N)c3c(-c4ccc5scnc5c4)csc23)n(C)n1 | Active | 91.7% | 97.8% | 96.7% | 97.8% | 89.1% | 98.9% | 33.4% | 94.2% | 74.3% | 95.1% | 97.6% | 73%
2 | CC(C)S(=O)(=O)c1ccc2nccc(Nc3ccc4scnc4c3)c2c1 | Active | 102% | 101% | 99.9% | 98.7% | 103% | 97.6% | 95.4% | 103% | 80.1% | 92.8% | 98.8% | 106%
3 | CNC(=O)c1ccc2c(c1)ncn2-c1ccc(CC(=O)OC(C)(C)C)cc1 | Active | 106% | 94.9% | 93.1% | 97.1% | 100% | 91.3% | 101% | 97.1% | 97.3% | 92.3% | 85.4% | 94.2%
